Patent EP0561850B1, “7-SUBSTITUTED-6-FLUORO-1,4-DIHYDRO-4-OXO-QUINOLINE-3-CARBOXYLIC ACID COMPOUNDS USEFUL AS ANTIBACTERIAL AGENTS” (priority 1990, dated 1992)
Values after ≈ are worked out from the molar mass of the structure shown. Where two headings read alike, the source gives them in different places.

Legend:
[1] = test system: Staphylococcus aureus S-127; assay: In vitro antimicrobial activity against aerobes, broth microdilution (NCCLS 1985); assay type: cell-based; settings: S127, read after 16-18 hours
Method: For aerobic microorganisms, a cation supplemented Mueller Hinton Broth (BBL) was used whereas the Anaerobe Broth MIC (Difco) was used for anaerobic microorganisms. An agar Dilution method was employed for certain aerobic microorganisms using Mueller Hinton II Agar (BBL) and a Cathra multipoint inoculating device which delivered 10^4 cfu/spot of the inoculum on the agar surface. MICs were read after 16-18 hours and 48 hours of incubation in case of microbes growing aerobically and anaerobically respectively.

Sa 127M = assay: Microbroth dilution (MHB) method, NCCLS M7-A2; assay type: cell-based, Staphylococcus aureus; settings: inoculum 5 x 10^5 cfu/ml, 35 °C/18 hr
Method: (§1) The test organisms were obtained from ATCC and clinical laboratories. The 96-well microtitre plates containing […] of serially diluted test compounds in Mueller Hinton Broth (MHB) (conc. range 64-0.03 µg/ml) were inoculated with […] of bacterial suspension in MHB so that an inoculum size of 5 x 10^5 cfu/ml was achieved.
(§2) EC. (S- 63): Eschericia coli Ecl. (S- 130): Enterobacter cloacae Pa. (S- 67): Pseudomonas aeruginosa Kp. (S- 80): Klebsiella pneumoniae Pr.
(§3) Microbroth Dilution (MHB) method; Inoculum, 5 x 10^5 cfu/ml; Incubation 35 °C/18 hr

[2] = test system: Klebsiella pneumoniae S-80; assay: Microbroth dilution (MHB) method, NCCLS M7-A2; assay type: cell-based; settings: Kp S-80, MHB, inoculum 5 x 10^5 cfu/ml, 35 °C/18 hr
Method: as §1, §2, §3

[3] = test system: Staphylococcus aureus S-127; assay: Microbroth dilution (MHB) method, NCCLS M7-A2; assay type: cell-based; settings: 35 °C/18 hr
Method: as §1, §2, §3

[4] = test system: Enterobacter cloacae S-130; assay: Microbroth dilution (MHB) method, NCCLS M7-A2; assay type: cell-based; settings: 35 °C/18 hr
Method: as §1, §2, §3

[5] = test system: Providencia rettgeri S-121; assay: Microbroth dilution (MHB) method, NCCLS M7-A2; assay type: cell-based; settings: 35 °C/18 hr
Method: as §1, §2, §3

[6] = test system: Pseudomonas aeruginosa S-67; assay: Microbroth dilution (MHB) method, NCCLS M7-A2; assay type: cell-based; settings: Pa S-67, MHB, inoculum 5 x 10^5 cfu/ml, 35 °C/18 hr
Method: as §1, §2, §3

Eschericia coli S-63 = assay: Microbroth dilution (MHB) method, NCCLS M7-A2; assay type: cell-based; settings: Ec S-63, inoculum 5 x 10^5 cfu/ml, 35 °C/18 hr
Method: as §1, §2, §3

[7] = Staphylococcus aureus, read-out: MIC
[8] = Klebsiella pneumoniae, S80, read-out: MIC
[9] = Staphylococcus aureus, S127, Sa S-127, inoculum 5 x 10^5 cfu/ml, read-out: MIC
[10] = Enterobacter cloacae, S130, Ecl S-130, inoculum 5 x 10^5 cfu/ml, read-out: MIC
[11] = Providencia rettgeri, S121, Pr S-121, inoculum 5 x 10^5 cfu/ml, read-out: MIC
[12] = Pseudomonas aeruginosa, S67, read-out: MIC
[13] = Sa S-127, inoculum 5 x 10^5 cfu/ml
[14] = Ecl S-130, inoculum 5 x 10^5 cfu/ml
[15] = Pr S-121, inoculum 5 x 10^5 cfu/ml

| Compound | MIC [1] | MIC (Sa 127M; [7]) | MIC [2, 8] | MIC [3, 9] | MIC [4, 10] | MIC [5, 11] | MIC [6, 12] | MIC (Eschericia coli S-63; read-out: MIC) | MIC (Sa 127M) | MIC [2] | MIC [3, 13] | MIC [4, 14] | MIC [5, 15] | MIC [6] | MIC (Eschericia coli S-63) |
| --- | --- | --- | --- | --- | --- | --- | --- | --- | --- | --- | --- | --- | --- | --- | --- |
| CCOC(=O)c1cn(C2CC2)c2nc(N3C[C@@H](N)[C@@H](n4ccnn4)C3)c(F)cc2c1=O (relative stereo) [Example 6, Ethyl 7-[cis-3-amino-4-(1,2,3-triazol-1-yl)pyrrolidin-1-yl] -1-cyclopropyl-6-fluoro-1,4-dihydro-4-oxo-1,8-naphthyridine-3-carboxylate] | ≤ 0.03 µg/mL |  |  |  |  |  |  |  |  |  |  |  |  |  |  |
| N[C@@H]1CN(c2c(F)cc3c(=O)c(C(=O)O)cn(C4CC4)c3c2F)C[C@@H]1n1ccnn1 (relative stereo) [Example 17, 7-[cis-3-Amino-4-(1,2,3-triazol-1-yl)-pyrrolidin-1-yl]-1-cyclopropyl-6,8-difluoro-1,4-dihydro-4-oxo-quinoline-3-carboxylic acid] | 1 µg/mL (≈ 2.4 µM) |  |  |  |  |  |  |  |  |  |  |  |  |  |  |
| Nc1c(F)c(N2C[C@@H](N)[C@@H](n3ccnn3)C2)c(F)c2c1c(=O)c(C(=O)O)cn2C1CC1 (relative stereo) [Example 18, 5-Amino-7-[cis-3-amino-4-(1,2,3-triazol-1-yl)-pyrrolidin-1-yl]-1-cyclopropyl-6,8-difluoro-1,4-dihydro-4-oxo-quinoline-3-carboxylic acid] | 0.5 µg/mL (≈ 1.16 µM) |  |  |  |  |  |  |  |  |  |  |  |  |  |  |
| Nc1c(F)c(N2C[C@@H](N)[C@@H](n3ccnn3)C2)c(F)c2c1c(=O)c(C(=O)O)cn2-c1ccc(F)cc1F (relative stereo) [Example 19, 5-Amino-7-[cis-3-amino-4-(1,2,3-triazol-1-yl)-pyrrolidin-1-yl]-1-(2,4-difluorophenyl)-6,8-difluoro-1,4-dihydro-4-oxo-quinoline-3-carboxylic acid] | 0.5 µg/mL (≈ 0.993 µM) |  |  |  |  |  |  |  |  |  |  |  |  |  |  |
| O=C(O)c1cn(-c2ccc(F)cc2)c2c(F)c(N3CCC(n4ccnn4)C3)c(F)cc2c1=O (stereo not shown) [Example 2, 6,8-Difluoro-1-(4-fluorophenyl)-7-[3-(1,2,3-triazol-1-yl)-pyrrolidin-1-yl]-1,4-dihydro-4-oxo-quinoline-3-carboxylic acid] | ≤ 0.06 µg/mL |  |  |  |  |  |  |  |  |  |  |  |  |  |  |
| COc1c(N2CC[C@H](n3ccnn3)C2)c(F)cc2c(=O)c(C(=O)O)cn(C3CC3)c12 [Example 31, 1-Cyclopropyl-6-fluoro-7-[3S-(1,2,3-triazol-1-yl)pyrrolidin-1-yl]-8-methoxy-1,4-dihydro-4-oxo-quinoline-3-carboxylic acid] |  | ≤ 0.015 µg/mL | 0.25 µg/mL (≈ 0.605 µM) | ≤ 0.015 µg/mL | 0.5 µg/mL (≈ 1.21 µM) | 0.5 µg/mL (≈ 1.21 µM) | 2 µg/mL (≈ 4.84 µM) | 0.12 µg/mL (≈ 0.29 µM) |  |  |  |  |  |  |  |
| COc1c(N2CCC(n3ccnn3)C2)c(F)cc2c(=O)c(C(=O)O)cn(C3CC3)c12 (stereo not shown) [Example 32, 1-Cyclopropyl-6-fluoro-7-[3-(1,2,3-triazol-1-yl)pyrrolidin-1-yl]-8-methoxy-1,4-dihydro-4-oxo-quinoline-3-carboxylic acid] |  | ≤ 0.03 µg/mL | 0.25 µg/mL (≈ 0.605 µM) | ≤ 0.03 µg/mL | 0.5 µg/mL (≈ 1.21 µM) | 0.12 µg/mL (≈ 0.29 µM) | 4 µg/mL (≈ 9.68 µM) | 0.12 µg/mL (≈ 0.29 µM) |  |  |  |  |  |  |  |
| COc1c(N2CCC(n3cc(C)nn3)C2)c(F)cc2c(=O)c(C(=O)O)cn(C3CC3)c12 (stereo not shown) [Example 33] |  | ≤ 0.015 µg/mL | 1 µg/mL (≈ 2.34 µM) | ≤ 0.015 µg/mL | 1 µg/mL (≈ 2.34 µM) | 2 µg/mL (≈ 4.68 µM) | 8 µg/mL (≈ 18.7 µM) | 0.12 µg/mL (≈ 0.281 µM) |  |  |  |  |  |  |  |
| Nc1cn(C2CCN(c3c(F)cc4c(=O)c(C(=O)O)cn(C5CC5)c4c3F)C2)nn1 (stereo not shown) [Example 42, 1-Cyclopropyl-6,8-difluoro-7-(3-(4-amino-1,2,3-triazol-1-yl)-pyrrolidin-1-yl)-1,4-dihydro-4-oxo-quinoline-3-carboxylic acid] |  | 1 µg/mL (≈ 2.4 µM) | 1 µg/mL (≈ 2.4 µM) | 0.25 µg/mL (≈ 0.6 µM) | 1 µg/mL (≈ 2.4 µM) | 1 µg/mL (≈ 2.4 µM) | 4 µg/mL (≈ 9.61 µM) | 0.5 µg/mL (≈ 1.2 µM) |  |  |  |  |  |  |  |
| O=C(O)c1cn(C2CC2)c2c(F)c(N3CCC(n4nncc4C(=O)O)C3)c(F)cc2c1=O (stereo not shown) [Example 43, 1-Cyclopropyl-6,8-difluoro-7-(3-(5-carboxy-1,2,3-triazol-1-yl)-pyrrolidin-1-yl)-1,4-dihydro-4-oxo-quinoline-3-carboxylic acid] |  | 8 µg/mL (≈ 18 µM) | 32 µg/mL (≈ 71.8 µM) | 8 µg/mL (≈ 18 µM) | 32 µg/mL (≈ 71.8 µM) | 32 µg/mL (≈ 71.8 µM) | > 32 µg/mL | 16 µg/mL (≈ 35.9 µM) |  |  |  |  |  |  |  |
| O=C(O)c1cn(C2CC2)c2c(F)c(N3CCC(n4cc(-c5ccccc5)nn4)C3)c(F)cc2c1=O (stereo not shown) [Example 46, 1-cyclopropyl-6,8-difluoro-7-[3-(4-phenyl-1,2,3-triazol-1-yl)-pyrrolidin-1-yl]-1,4-dihydro-4-oxo-quinoline-3-carboxylic acid] |  | 0.015 µg/mL (≈ 0.0314 µM) | 1 µg/mL (≈ 2.09 µM) | 0.015 µg/mL (≈ 0.0314 µM) | 1 µg/mL (≈ 2.09 µM) | 0.015 µg/mL (≈ 0.0314 µM) | 32 µg/mL (≈ 67 µM) | 0.25 µg/mL (≈ 0.524 µM) |  |  |  |  |  |  |  |
| Nc1c(F)c(N2CCC(n3cc(-c4ccccc4)nn3)C2)c(F)c2c1c(=O)c(C(=O)O)cn2C1CC1 (stereo not shown) [Example 47, 5-amino-1-cyclopropyl-6,8-difluoro-7-[3-(4-phenyl-1,2,3-triazol-1-yl)-pyrrolidin-1-yl]-1,4-dihydro-4-oxo-quinoline-3-carboxylic acid] |  | 0.015 µg/mL (≈ 0.0305 µM) | 0.5 µg/mL (≈ 1.02 µM) | 0.015 µg/mL (≈ 0.0305 µM) | 16 µg/mL (≈ 32.5 µM) | 0.015 µg/mL (≈ 0.0305 µM) | > 32 µg/mL | 0.25 µg/mL (≈ 0.508 µM) |  |  |  |  |  |  |  |
| Cc1c(F)c(N2CCC(n3cc(-c4ccccc4)nn3)C2)c(F)c2c1c(=O)c(C(=O)O)cn2C1CC1 (stereo not shown) [Example 48, 1-cyclopropyl-6,8-difluoro-5-methyl-7-[3(4-phenyl-1,2,3-triazol-1-yl)-pyrrolidin-1-yl]-1,4-dihydro-4-oxo-quinoline-3-carboxylic acid] |  | 0.015 µg/mL (≈ 0.0305 µM) | 4 µg/mL (≈ 8.14 µM) | 0.015 µg/mL (≈ 0.0305 µM) | 4 µg/mL (≈ 8.14 µM) | 0.015 µg/mL (≈ 0.0305 µM) | 16 µg/mL (≈ 32.6 µM) | 1 µg/mL (≈ 2.03 µM) |  |  |  |  |  |  |  |
| O=C(O)c1cn(C2CC2)c2c(F)c(N3CCC(n4ccnn4)C3)c(F)c(F)c2c1=O (stereo not shown) [Example 49, 1-cyclopropyl-5,6,8-trifluoro-7-[3-(1,2,3-triazol-1-yl)-pyrrolidin-1-yl]-1,4-dihydro-4-oxo-quinoline-3-carboxylic acid] |  | 0.25 µg/mL (≈ 0.596 µM) | 0.5 µg/mL (≈ 1.19 µM) | 0.25 µg/mL (≈ 0.596 µM) | 0.5 µg/mL (≈ 1.19 µM) | 0.12 µg/mL (≈ 0.286 µM) | 8 µg/mL (≈ 19.1 µM) | 0.5 µg/mL (≈ 1.19 µM) |  |  |  |  |  |  |  |
| O=C(O)c1cn(C2CC2)c2c(F)c(N3CCC(n4ccnn4)C3)c(F)c(O)c2c1=O (stereo not shown) [Example 50, 1-Cyclopropyl-5-hydroxy-6,8-difluoro-7-[-3-(1,2,3-triazol-1-yl)-pyrrolidin-1-yl]-1,4-dihydro-4-oxo-quinoline-3-carboxylic acid] |  | 0.25 µg/mL (≈ 0.599 µM) | 1 µg/mL (≈ 2.4 µM) | 0.25 µg/mL (≈ 0.599 µM) | 2 µg/mL (≈ 4.79 µM) | 0.06 µg/mL (≈ 0.144 µM) | 16 µg/mL (≈ 38.3 µM) | 1 µg/mL (≈ 2.4 µM) |  |  |  |  |  |  |  |
| CCn1cc(C(=O)O)c(=O)c2cc(F)c(N3CCNCC3)cc21 [MFLX, Norfloxacin, reference compound] |  | 16 µg/mL (≈ 50.1 µM) | 0.12 µg/mL (≈ 0.376 µM) | 1 µg/mL (≈ 3.13 µM) | 0.12 µg/mL (≈ 0.376 µM) | 1 µg/mL (≈ 3.13 µM) | 1 µg/mL (≈ 3.13 µM) | 0.06 µg/mL (≈ 0.188 µM) |  |  |  |  |  |  |  |
| N,N,N-Trimethyl-N-(2-hydroxyethyl) ammonium 1- cyclopropyl-6,8-difluoro-7-[3-(4-methyl-1,2,3-triazol-1-yl)pyrrolidin-1-yl]-1,4-dihydro-4-oxo-quinoline-3-carboxylate [Example 35] |  |  |  |  |  |  |  |  | .03 µg/mL | .25 µg/mL | ≤.015 µg/mL | .5 µg/mL | .25 µg/mL | 4 µg/mL | .25 µg/mL |
| N,N,N-Trimethyl-N-(2-hydroxyethyl)ammonium-1-cyclopropyl-6,8-difluoro-7-[3-(1,2,4-triazol-1-yl)pyrrolidin-1-yl]-1,4-dihydro-4-oxo-quinoline-3-carboxylate [Example 37] |  |  |  |  |  |  |  |  | .25 µg/mL | 1 µg/mL | .06 µg/mL | 2 µg/mL | 1 µg/mL | 8 µg/mL | .5 µg/mL |
| Norfloxacin - choline salt [MFLX-, reference compound] |  |  |  |  |  |  |  |  | 16 µg/mL | .25 µg/mL | 2 µg/mL | .25 µg/mL | .12 µg/mL | 1 µg/mL | .06 µg/mL |
